The source of these data is patent publication US20250154193A1, “STEROID COMPOUND, AND PREPARATION METHOD THEREFOR AND APPLICATION THEREOF” (CHOLESGEN (SHANGHAI) CO., LTD., priority 2022, published 2025).

One series relates to liver organoids. Description: Real-time quantitative PCR of lipogenesis- and fibrosis-related genes in fatty liver organoids. Particulars: mouse fatty liver organoids, 1 and 3 μM, 72 hours, qPCR. The class given is cell-based, mice. The text has this:
Liver samples or liver organoid samples were homogenized in TRI Reagent (T9424, Sigma), and total RNA was extracted according to the manufacturer's instructions. Equal amounts of RNA template were used to synthesize cDNA with oligo dT primers and MLV reverse transcriptase (Promega). Quantitative data for genes were collected using the Bio-Rad CFX96 real-time PCR system, and the relative amount of gene mRNA was quantified using the comparative CT method.
C57BL/6N mice were fed with fatty liver-inducing diet (TrophicDiet, TP2630052A, containing 10.2% kcal protein, 37.3% kcal carbohydrate, and 52.6% kcal fat) and fructose-containing drinking water (23.1 g of fructose and 18.9 g of dextrose were dissolved in 1 L of water, then filtered and sterilized) for a total of 16 weeks starting at 12 weeks of age to generate a fatty liver model. To generate fatty liver organoids, liver tissues from mice with fatty liver were minced and digested in digestion buffer at 37° C. for 30 to 60 minutes. The digestion buffer included DMEM/F-12 (Cytiva, SH30023.01), 2.5 mg/mL collagenase D (Roche, COLLD-RO), and 0.1 mg/mL DNaseI (Sigma-Aldrich, DN25). […]
To distinguish whether the inhibitory effect of 25-hydroxylanosterol is directly based on its effect on the liver or a systemic effect, we utilized 3D liver organoids as an in vitro model for the study of fatty liver to analyze the effect of 25-hydroxylanosterol on lipogenesis and fibrosis marker expression in liver organoids. […] RNA from the organoids was collected and analyzed for the differential expression of lipogenesis-related genes (Hmgcs, Hmgcr, SCD1, and FASN) and fibrosis markers (αSMA and Colla1) using fluorescent real-time quantitative PCR.
In FIGS. 35 and 36, data are represented as mean±standard deviation. P values were calculated using one-way ANOVA; ns indicates no statistical difference; * indicates P<0.05; ** indicates P<0.01; *** indicates P<0.001. In FIGS. 47 and 53, quantitative analysis was performed using ImageJ software. […] P values were calculated using one-way ANOVA; * indicates P<0.05; ** indicates P<0.01; *** indicates P<0.001.
A general note: In qPCR the cycle at which signal appears reflects the starting amount.

A further series has as its system SREBP pathway. Description: SREBP luciferase reporter gene system (SRE-luciferase assay) in Huh-7/SRE-Luc cells. It counts as cell-based. The note with it: Homo sapiens, sterol-deficient medium, compound treatment 16 hours, luciferase/GFP ratio. An outline of the steps:
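Huh-7 cells stably carrying an LDLR promoter (SRE)-luciferase and GFP were treated for 16 hours in sterol-deficient medium (5% lipoprotein-deficient serum, 2 μM lovastatin, 10 μM mevalonate) at […] compound, with DMSO vehicle. IC50 derived from the ratio of luciferase activity to GFP fluorescence.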
Background: Reporter assays use an easily measured gene product as a stand-in for the process of interest.

Series [1] in a line: Liver microsomal metabolic stability assay. Particulars: rat liver microsomes, NADPH, 37° C., 0-60 minutes; read-out: Rat microsomal metabolic half-life (t1/2). It counts as in vitro ADME. As to the method:
PBS solution (100 mM), MgCl2 solution (100 mM), and NADPH solution (20 mM) were prepared respectively. Compound and testosterone (positive control) stock solutions were then prepared with dimethyl sulfoxide (DMSO), diluted to 100 µM with methanol for sample incubation, and stored at −10 to −30° C. 12.5 μL of rat liver microsomes (purchased from XenoTech, Cat. No.: R1000, Lot No.: 1310030, specification: 20 mg/mL), 432.5 µL of PBS solution (100 mM), 25 µL of NADPH solution (20 mM), and 25 μL of MgCl2 solution (100 mM) were added to a 96-well plate, mixed well, and pre-incubated at 37° C. for 5 minutes. 5 µL of substrate (test compound) solution was added to start the reaction. At specified time points of 0, 5, 15, 30, 45, and 60 minutes (0 and 60 minutes for the negative control group), 50 µL of the incubated samples were added to a stop plate containing 100 µL of ice-cold stop solution, vortexed for 1 minute to inactivate the reaction, and stored at −60 to −90° C. for subsequent analysis. Sample analysis of the test compound and the control compound testosterone was performed using LC-MS/MS method. Chromatographic peaks were integrated, calculated, and processed using Analyst software. Semi-quantitative analysis was performed for both the test compound and the control compound testosterone by calculating peak area ratios.
(In general: Liver microsomes are a subcellular fraction often used to study metabolism.)

For the molecule `CC[C@H]1[C@@H](O)[C@@H]2[C@H](CC[C@]3(C)[C@@H]([C@H](C)CCC(=O)O)CC[C@@H]23)[C@@]2(C)CC[C@@H](O)C[C@@H]12` [obeticholic acid, Obeticholic acid, reference compound], the “expression levels of lipogenesis-related genes (Hmgcs, Hmgcr, SCD1, and FASN)” value with liver organoids is listed as “failed to inhibit”. In the case of `C[C@H](CCCC(O)c1ccccc1OC(F)(F)F)[C@H]1CC[C@H]2[C@@H]3CC[C@H]4[C@@H](O)[C@@H](O)CC[C@]4(C)[C@H]3CC[C@]12C` (stereo partly drawn) [compound 317, 24-(hydroxy{2-[(trifluoromethyl)oxy]phenyl}methyl)-5α-cholan-3β,4β-diol], the concentration for half-maximal inhibition (IC50) (commonly the concentration that inhibits the measured activity by half) in the series with SREBP pathway came to 0.14 µM. In series [1], the half-life at 1 µM is 2.28 h. The corresponding values for `C[C@H](CCCC(C)(C)O)[C@H]1CC[C@H]2[C@@H]3CC[C@H]4[C@@H](O)[C@@H](O)CC[C@]4(C)[C@H]3CC[C@]12C` [compound 198, 5α-Cholest-30,40,25-triol] are 0.106 µM and 1.2 h. Consider `C[C@H](CCCC(O)c1c(F)cccc1F)[C@H]1CC[C@H]2[C@@H]3CC[C@H]4[C@@H](O)[C@@H](O)CC[C@]4(C)[C@H]3CC[C@]12C` (stereo partly drawn) [compound 284, 24-[(2,6-difluorophenyl)(hydroxy)methyl]-5α-cholan-3β,4β-diol], for which the half-maximal inhibitory concentration (IC50) in the series on SREBP pathway came to 0.0874 µM. Also, in series [1], the half-life at 1 µM was over 2 h. The corresponding values for `C[C@H](CCCC(O)c1c(F)cccc1F)[C@H]1CC[C@H]2[C@@H]3CC[C@H]4C(=O)[C@@H](O)CC[C@]4(C)[C@H]3CC[C@]12C` (some centres unmarked) [compound 298] are 0.028 µM and 0.316 h. For `C[C@H](CCCC(C)(C)O)[C@H]1CC[C@H]2[C@@H]3CC[C@H]4[C@H](O)[C@@H](O)CC[C@]4(C)[C@H]3CC[C@]12C` [compound 204, 5α-cholest-3β,4α,25-triol] the same measures were 0.395 µM and 3.97 h.
